Source: the METLIN SMRT retention time set (Domingo-Almenara et al. 2019)

Assay: gradient 5% acetonitrile 3 min, to 50% in 2 min, to 85% in 15 min, held 3 min, 100 µL/min
Conditions: column: Zorbax Extend-C18 2.1 x 50 mm; eluents: water / acetonitrile, 0.1% formic acid
Procedure, shortened: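 Values are retention times taken from adduct peaks that software picked and an analyst inspected. The pure standards were run as mixtures of ~100 molecules on HPLC linked to a quadrupole time-of-flight mass spectrometer, in positive and negative ionization mode. A Zorbax Extend-C18 column (2.1 × 50 mm, 1.8 μm) was used at 100 μL/min with water and acetonitrile, each including 0.1% formic acid.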

SMILES | RP-LC retention time [s]
CCC(c1cccs1)N1C(=O)[C@H]2CN(S(=O)(=O)c3cccc(OC)c3)C[C@H]2C1=O (stereo partly drawn) | 1010
CCCCCCCNC(=O)C1CCCN(c2ncc(-c3ccccc3)cn2)C1 (stereo not drawn) | 1260
CC1(C(N)=O)CC(c2ccccc2)=NO1 (stereo not drawn) | 828
CCSc1nnc(NC(=O)Cn2cnc(C(C)C)cc2=O)s1 | 664
O=C(CCc1cc(Cl)no1)N1CCCCC1c1noc(COCC2CC2)n1 (stereo not drawn) | 934
CN(C)c1ccc(-c2nc3cnccn3c2Nc2cccc(C(N)=O)c2)cc1 | 609
CC(C)CNC(=O)C1Cn2cccc2C(=O)N1 (stereo not drawn) | 651
Cc1oc(C(C)C)nc1C(=O)NC(C)c1ccccn1 (stereo not drawn) | 610
O=C(Nc1cnc(-c2cccnc2)nc1)C1CCCCC1 | 681
CCCN(CCC)C(=O)Cn1c(CN(C)C(C)=O)nc2ccccc21 | 630
CC(C)(C)NCC(O)COc1cccc2[nH]c(=O)[nH]c12 (stereo not drawn) | 603
CC(C)c1noc(-c2cc(=O)n(CC(=O)Nc3ccccc3F)c3ccccc23)n1 | 984
COCCNC(=O)c1nnn(-c2cccc(Cl)c2)c1-c1ccncc1 | 690
CN(CCc1noc(-c2ccc(Cl)cc2)n1)C(=O)c1ccc(C#N)cc1 | 908
CSc1ccc(NC(=O)Nc2c(-c3ccncc3)nc3ccccn23)cc1 | 618
CCN(C(=O)Cn1nc2cc(-c3ccccc3)nc(C)n2c1=O)c1cccc(C)c1 | 862
CCN(CC)CCCNS(=O)(=O)c1cc(-c2cc(C)no2)cs1 | 619

More lines, now with the values ahead:

RP-LC retention time [s] | SMILES
758 | COc1cccc(CCNC(=O)C2CCCN(c3ncnc4c3nc3n4CCCCC3)C2)c1OC (stereo not drawn)
1060 | COc1cccc(-c2noc(Cc3nnc(-c4cc(C)cc(C)c4)o3)n2)c1OC
584 | NC(=O)[C@@H]1C[C@H](Oc2cccnc2)CN1C(=O)CC1CCCC1
1250 | COc1cccc(-n2c(=O)c(C(=O)Nc3ccc(F)c(Cl)c3)c(O)c3cccnc32)c1
878 | CCCS(=O)(=O)N1CCc2ccc(NC(=O)Oc3ccccc3)cc2C1
708 | Cc1cc(S(=O)(=O)N2CCN(c3cnn4c(C)nnc4c3)CC2)ccc1F
1120 | Cc1ccc(-c2noc(-c3cccc(S(=O)(=O)N4CCOCC4)c3)n2)cc1
671 | CC1CCN(c2ccc(NC(=O)CN3C(=O)CN(C)C(=O)c4ccccc43)cc2)CC1
630 | O=C(CC1CCN(C(=O)Nc2cccc(Cl)c2)CC1)N1CCN(c2ccccn2)CC1
730 | Cc1ccccc1NC(=O)CN1C(=O)NC2(CCCCC2)C1=O
648 | COc1ccc(OC)c(NC(=O)N2CCc3c(c(C(=O)N4CCOCC4)nn3C)C2)c1
922 | COc1ccc(-c2nn(CCCC(=O)N3CCN(c4ccccc4)CC3)c(=O)c3noc(C)c23)cc1
921 | CCOc1nccnc1NC1CCN(C(=O)c2cccs2)CC1
771 | CCN1c2cc(F)ccc2C(=O)NC12CCN(C(=O)c1ccc3c(c1)OCO3)CC2
585 | COCCCNC(=O)C1CCCN(c2cc(=O)n(C)c(=O)n2C)C1 (stereo not drawn)
559 | CCOc1cccc2sc(N(CCCN(C)C)C(=O)CN3C(=O)CCC3=O)nc12
558 | CNC(=O)c1cc(NC(=O)C2CCC2)cc2nc(C)ccc12
772 | O=C(Nc1cc(-c2ccccn2)no1)c1ccc2c(c1)OCO2
1040 | COc1ccc(OC)c(NC(=O)CN2C(=O)CC(c3ccc(Cl)cc3)=Nc3cccnc32)c1
701 | Cc1cccc2nnc(N3CCN(C(=O)c4ccc(Cl)s4)CC3)n12
672 | O=C(NCc1ccccc1)Nc1cccc(-c2ccc(N3CCOCC3)nn2)c1
